Assay results published in patent US20210238162A1, “CHEMICAL COMPOUNDS” (GlaxoSmithKline Intellectual Property Development Limited, priority 2015, published 2021).
Where two headings read alike, the source gives them in different places.

Biological target: T1, haematopoietic prostaglandin D synthase (H-PGDS) (Homo sapiens, UniProt O60760)
T1 construct: Full length human H-PGDS cDNA (Invitrogen Ultimate ORF IOH13026) was amplified by PCR; made in house; host or cells: E. coli BL21 (DE3*), vector pET22b+
T1 sequence (O60760 whole entry): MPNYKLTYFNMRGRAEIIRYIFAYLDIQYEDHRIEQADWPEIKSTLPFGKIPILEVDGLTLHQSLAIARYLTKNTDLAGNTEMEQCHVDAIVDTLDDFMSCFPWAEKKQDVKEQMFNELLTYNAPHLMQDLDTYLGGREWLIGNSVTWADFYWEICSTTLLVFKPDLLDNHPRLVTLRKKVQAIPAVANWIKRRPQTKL
Experiment: H-PGDS RapidFire High Throughput Mass Spectrometry Assay
Type: biochemical
Method: The H-PGDS RapidFire™ mass spectrometric assay monitors conversion of prostaglandin H2 (PGH2) to prostaglandin D2 (PGD2) by haematopoietic prostaglandin D synthase (H-PGDS). In the assay format described here, the substrate (PGH2) is formed in situ by the action of cyclooxygenase-2 on arachidonic acid. This first step is set up to be fast, and generates a burst of PGH2 at ˜10 μM. The PGH2 is then further converted to PGD2 by the H-PGDS enzyme. […] Plates are then read on the RapidFire™ high throughput solid phase extraction system (Agilent) which incorporates a solid phase extraction step coupled to a triple quadrupole mass spectrometer (AB SCIEX). Relative levels of PGD2 and PGF2α, which acts as a surrogate for substrate, are measured and a percent conversion calculated.
Full length human H-PGDS cDNA (Invitrogen Ultimate ORF IOH13026) was amplified by PCR with the addition of a 5′ 6-His tag and TEV protease cleavage site. The PCR product was digested with Ndel and Xhol and ligated into pET22b+ (Merck Novagen®). Expression was carried out in E. coli strain BL21 (DE3*) using auto-induction Overnight Express™ Instant TB medium (Merck Novagen®) supplemented with 1% glycerol. The culture was first grown at 37° C. and the temperature was reduced to 25° C. when OD600 reached 2.0. Cells were harvested by centrifugation after a further 18 hr. 10 g of E. coli cell pellet was suspended to a total volume of 80 mL in lysis buffer (20 mM Tris-Cl pH 7.5, 300 mM NaCl, 20 mM imidazole, 5 mM β-mercaptoethanol, 10% glycerol). 1 mg/mL protease inhibitors (Protease Inhibitor Cocktail Set Ill, Merck Calbiochem®) and 1 mg/mL lysozyme were added to the cell suspension. The suspension was then sonicated for 5 min (UltraSonic Processor VCX 750, Cole-Parmer Instrument Co.) with a micro probe (50% amplitude, 10 sec on/off) and then centrifuged at 100,000 g for 90 min (at 4° C.). The supernatant was loaded onto a Ni-NTA HiTrap column (5 mL, GE Heathcare, pre-equilibrated in lysis buffer). The column was washed with 10 column volumes of lysis buffer and eluted with lysis buffer containing 500 mM imidazole. The pooled protein peak fractions were concentrated using a 10 kDa centrifugal filter at 3500 g and 4° C. (Amicon Ultra-15 centrifugal filter unit with Ultracel-10 membrane from Millipore). Further purification of the concentrated protein was carried out using gel filtration chromatography on a HiLoad 26/600 Superdex 75 preparative grade column (GE Healthcare Life Sciences) using 50 mM Tris pH 7.5, 50 mM NaCl, 1 mM dithiothreitol, 1 mM MgCl2. Fractions containing the protein were pooled, concentrated as described above, and stored at −80° C.
The full length human COX-2 gene (accession number L15326) was amplified by PCR to generate an EcoRI-HindIII fragment containing an in-frame FLAG tag. This was subcloned into pFastBac 1 (Invitrogen). The COX2 FLAG plasmid was recombined into the baculovirus genome according to the BAC-to-BAC protocol described by Invitrogen. Transfection into Spodoptera frugiperda (Sf9) insect cells was performed using Cellfectin (Invitrogen), according to the manufacturer's protocol. […] Recombinant virus was added at a Multiplicity of Infection (MOI) of 5 and the culture was allowed to continue for 3 days. Cells were harvested using a continuous feed centrifuge run at 2500 g at a rate of approximately 2 L/min with cooling. The resultant cell slurry was re-centrifuged in pots (2500 g, 20 min, 4° C.) and the cell paste was stored at −80° C. […] The suspension was sonicated in 500 mL batches for 8×5 seconds at 10 u amplitude with the medium tip of an MSE probe sonicator and subsequently incubated at 4° C. for 90 min with gentle stirring. The lysate was centrifuged at 12000 rpm for 45 min at 4° C. in a Sorvall SLA1500 rotor. The supernatant (1400 mL) was added to 420 mL of 20 mM Tris-Cl pH 7.4, 150 mM NaCl, 0.1 mM EDTA to reduce the concentration of n-octyl-β-D-glucopyranoside to 1% w/v.

[1] = H-PGDS RapidFire MS assay, mean pIC50, read-out: Potency Range (mean pIC50) (converted)
[2] = in at least one experimental run, read-out: H-PGDS pIC50 value (converted)

`C[C@]1(O)C[C@@H](NC(=O)c2cnc3cc(C4CC4)c(Cl)cc3c2)C1` [Example 40, 6-Chloro-7-cyclopropyl-N-((1s,3s)-3-hydroxy-3-methylcyclobutyl)quinoline-3-carboxamide] gave an IC50 [1] of 10 to 79.4 nM.
Work on `COc1ccc2cc(C(=O)N[C@H]3CC[C@H](C(C)(C)O)CC3)cnc2c1F` [Example 202, 8-Fluoro-N-(trans-4-(2-hydroxypropan-2-yl)cyclohexyl)-7-methoxyquinoline-3-carboxamide] yielded an IC50 [1] of 10 to 79.4 nM.
Work on `O=C1CC(NC(=O)c2cnc3cc(C4CC4)c(Cl)cc3c2)c2ccccc2N1` (stereo not drawn) [Example 37, 6-Chloro-7-cyclopropyl-N-(2-oxo-1,2,3,4-tetrahydroquinolin-4-yl)quinoline-3-carboxamide] yielded an IC50 [1] of under 10 nM.
`CC(C)Oc1ccc2cc(C(=O)NC3CCN(c4nnnn4C)CC3)cnc2c1` [Example 115, 7-Isopropoxy-N-(1-(1-methyl-1H-tetrazol-5-yl)piperidin-4-yl)quinoline-3-carboxamide] was tested, and the IC50 [1] was 100 to 1000 nM.
`CC(O)[C@H]1CC[C@H](NC(=O)c2cnc3cc(OC(F)F)ccc3c2)CC1` (stereo partly drawn) [Example 13, 7-(Difluoromethoxy)-N-(trans-4-(-1-hydroxyethyl)cyclohexyl)quinoline-3-carboxamide] showed an IC50 [1] of 10 to 79.4 nM.
Work on `O=C(N[C@H]1CCN(CC2CC2)C1=O)c1cnc2cc(OC(F)F)c(Cl)cc2c1` [Example 120, (S)-6-Chloro-N-(1-(cyclopropylmethyl)-2-oxopyrrolidin-3-yl)-7-(difluoromethoxy)quinoline-3-carboxamide] yielded an IC50 [1] of 10 to 79.4 nM.
In the case of `C[C@H]1CCN1c1cc2ncc(C(=O)N[C@H]3CC[C@H](C(C)(C)O)CC3)cc2cc1F` [Example 174, 6-Fluoro-N-(trans-4-(2-hydroxypropan-2-yl)cyclohexyl)-7-((S)-2-methylazetidin-1-yl)quinoline-3-carboxamide], the IC50 [1] was 10 to 79.4 nM.
Compound `O=C(N[C@@H]1CC[C@@H](C(O)C(F)(F)F)OC1)c1cnc2cc(OC(F)F)ccc2c1` (mixture of isomers) [Example 17, Racemic 7-(Difluoromethoxy)-N-((3R,6S)-6-(2,2,2-trifluoro-1-hydroxyethyl)tetrahydro-2H-pyran-3-yl)quinoline-3-carboxamide] has an IC50 [1] of 10 to 79.4 nM.
`O=C(N[C@H]1CC[C@H](N2CC(F)C2)CC1)c1cnc2cc(OC(F)F)c(Cl)cc2c1` [Example 132, 6-Chloro-7-(difluoromethoxy)-N-(trans-4-(3-fluoroazetidin-1-yl)cyclohexyl)quinoline-3-carboxamide] showed an IC50 [1] of under 10 nM.
With `CS(=O)(=O)N1CCC(NC(=O)c2cnc3cc(OC(F)F)ccc3c2)CC1` [Example 7, 7-(Difluoromethoxy)-N-(1-(methylsulfonyl)piperidin-4-yl)quinoline-3-carboxamide] the IC50 [1] was 10 to 79.4 nM.
`O=C(N[C@H]1CC[C@H]([C@@H](O)C(F)(F)F)CC1)c1cnc2cc(OC(F)F)ccc2c1` (single isomer, unassigned) [Example 20] was tested, and the IC50 [1] was under 10 nM and the IC50 [2] was 7.94 nM.
Compound `CC(N[C@H]1CC[C@H](NC(=O)c2cnc3cc(OC(F)F)c(Br)cc3c2)CC1)C(F)F` (mixture of isomers) [Example 156, 6-Bromo-7-(difluoromethoxy)-N-(trans-4-((1,1-difluoropropan-2-yl)amino)cyclohexyl)quinoline-3-carboxamide] has an IC50 [1] of under 10 nM.
For `CC1(C)CC(NC(=O)c2cnc3cc(OC(F)F)c(Cl)cc3c2)CCO1` (stereo not drawn) [Example 150, 6-Chloro-7-(difluoromethoxy)-N-(2,2-dimethyltetrahydro-2H-pyran-4-yl)quinoline-3-carboxamide], the IC50 [1] was 10 to 79.4 nM and the IC50 [2] was 39.8 nM.
`CCOC(=O)c1cnc(N2CC(NC(=O)c3cnc4cc(OC(F)F)c(F)cc4c3)C2)o1` [Example 84, Ethyl 2-(3-(7-(difluoromethoxy)-6-fluoroquinoline-3-carboxamido)azetidin-1-yl)oxazole-5-carboxylate] was tested, and the IC50 [1] was 10 to 79.4 nM.
`O=C(N[C@H]1CCC[C@H]1O)c1cnc2cc(OC(F)F)c(F)cc2c1` [Example 52, 7-(Difluoromethoxy)-6-fluoro-N-((1S,2R)-2-hydroxycyclopentyl)quinoline-3-carboxamide] was tested, and the IC50 [1] was 100 to 1000 nM.
Work on `O=C(N[C@H]1CC[C@H]([C@H](O)C(F)(F)F)CC1)c1cnc2cc(OC(F)F)ccc2c1` (single isomer, unassigned) [Example 21] yielded an IC50 [1] of under 10 nM.
`CC(C)(O)CO[C@H]1CC[C@H](NC(=O)c2cnc3cc(OC(F)F)ccc3c2)CC1` [Example 12, 7-(Difluoromethoxy)-N-(trans-4-(2-hydroxy-2-methylpropoxy)cyclohexyl)quinoline-3-carboxamide] was tested, and the IC50 [1] was 10 to 79.4 nM.
Work on `CCOc1cc2ncc(C(=O)N[C@H]3CC[C@H](C(C)(C)O)CC3)cc2cc1F` [Example 178, 7-Ethoxy-6-fluoro-N-(trans-4-(2-hydroxypropan-2-yl)cyclohexyl)quinoline-3-carboxamide] yielded an IC50 [1] of 10 to 79.4 nM.
Compound `C[C@H](N[C@H]1CC[C@H](NC(=O)c2cnc3cc(OC(F)F)c(F)cc3c2)CC1)C(F)(F)F` [Example 63, 7-(Difluoromethoxy)-6-fluoro-N-(trans-4-(((S)-1,1,1-trifluoropropan-2-yl)amino)cyclohexyl)quinoline-3-carboxamide] has an IC50 [1] of under 10 nM.
`NCCCOC[C@H]1CC[C@H](NC(=O)c2cnc3cc(OC(F)F)ccc3c2)CC1` [Example 23, N-(trans-4-((3-Aminopropoxy)methyl)cyclohexyl)-7-(difluoromethoxy)quinoline-3-carboxamide] was tested, and the IC50 [1] was 10 to 79.4 nM.
`O=C1CC(NC(=O)c2cnc3cc(OC(F)F)c(Cl)cc3c2)C1` [Example 142, 6-Chloro-7-(difluoromethoxy)-N-(3-oxocyclobutyl)quinoline-3-carboxamide] was tested, and the IC50 [1] was 10 to 79.4 nM and the IC50 [2] was 39.8 nM.
Compound `O=C(NC1CC2(CC(NCC(F)(F)F)C2)C1)c1cnc2cc(OC(F)F)c(F)cc2c1` (racemic) [Example 61, 7-(Difluoromethoxy)-6-fluoro-N-(6-((2,22-trifluoroethyl)amino)spiro[3.3]heptan-2-yl)quinoline-3-carboxamide] has an IC50 [1] of 10 to 79.4 nM.
With `CC1(F)CN(c2cc3ncc(C(=O)N[C@H]4CC[C@H](C(C)(C)O)CC4)cc3cc2F)C1` [Example 165, 6-Fluoro-7-(3-fluoro-3-methylazetidin-1-yl)-N-(trans-4-(2-hydroxypropan-2-yl)cyclohexyl)quinoline-3-carboxamide] the IC50 [1] was 10 to 79.4 nM and the IC50 [2] was 63.1 nM.
`CC1CCN1c1cc2ncc(C(=O)N[C@H]3CCNC3=O)cc2cc1Cl` (stereo partly drawn) [Example 182, 6-Chloro-7-(2-methylazetidin-1-yl)-N—((S)-2-oxopyrrolidin-3-yl)quinoline-3-carboxamide] gave an IC50 [1] of 10 to 79.4 nM.
Work on `O=C(N[C@H]1CC[C@H](C(=O)N2CCOCC2)CC1)c1cnc2cc(OC(F)F)c(Cl)cc2c1` [Example 210, 6-Chloro-7-(difluoromethoxy)-N-((trans)-4-(morpholine-4-carbonyl)cyclohexyl)quinoline-3-carboxamide] yielded an IC50 [1] of under 10 nM.
Work on `CS(=O)(=O)CCO[C@H]1CC[C@H](NC(=O)c2cnc3cc(OC(F)F)c(F)cc3c2)CC1` [Example 94, 7-(Difluoromethoxy)-6-fluoro-N-(trans-4-(2-(methylsulfonyl)ethoxy)cyclohexyl)quinoline-3-carboxamide] yielded an IC50 [1] of 10 to 79.4 nM.
